{"source": "patent US20230241042A1", "about": "“USE OF PENEHYCLIDINE IN TREATMENT OR PREVENTION OF VISION-IMPAIRING EYE DISEASES” (GRAND LIFE SCIENCES GROUP (WUHAN) CO., LTD., priority 2020, published 2023)", "origin": "cited, not measured here", "key": {"[1]": {"tested_on": "chick modeled eyes with visual form deprivation myopia (FDM)", "conditions": "day 8, 0.01% by mass injected into the vitreous cavity"}, "FDM [2]": {"tested_on": "FDM", "conditions": "in vivo"}, "experimental myopia": {"tested_on": "experimental myopia", "conditions": "topical eye drops or oral administration"}, "FDM [3]": {"tested_on": "FDM", "conditions": "daily subconjunctival injection"}}, "data": [{"compound": "CN1[C@@H]2CC[C@H]1C[C@@H](OC(=O)C(CO)c1ccccc1)C2", "note": "(stereo partly shown) [atropine]", "values": [{"measurement": "induced myopia", "setting": "[1]", "value": "−2.8", "unit": "D"}, {"measurement": "ocular axis extension", "setting": "[1]", "value": 0.21, "unit": "mm"}, {"measurement": "prevention of FDM and retinal damage", "setting": "FDM [2]", "value": "certain effect in preventing FDM without retinal damage"}]}, {"compound": "OC(CCN1CCCCC1)(c1ccccc1)C1CCCCC1", "note": "(stereo not shown) [trihexyphenidyl]", "values": [{"measurement": "prevention of the progression of experimental myopia", "setting": "experimental myopia", "value": "not effective in preventing the progression of experimental myopia"}]}, {"compound": "CC[N+](C)(CC)CCOC(=O)C(O)(c1ccccc1)C1CCCCC1", "note": "(stereo not shown) [Oxypheneonium, Oxyphenonium]", "values": [{"measurement": "prevention of FDM and retinal damage", "setting": "FDM [2]", "value": "certain effect in preventing FDM without retinal damage"}]}, {"compound": "CN1CCN(CC(=O)N2c3ccccc3C(=O)Nc3cccnc32)CC1", "note": "[pirenzepine]", "values": [{"measurement": "inhibition of the occurrence of FDM", "setting": "FDM [3]", "value": "could inhibit the occurrence of FDM"}, {"measurement": "prevention of FDM and retinal damage", "setting": "FDM [2]", "value": "certain effect in preventing FDM without retinal damage"}]}, {"compound": "C[N+]1(C)CCC(OC(=O)C(c2ccccc2)c2ccccc2)CC1.[I-]", "note": "[4-DAMP]", "values": [{"measurement": "inhibition of the occurrence of FDM", "setting": "FDM [3]", "value": "ineffective"}]}, {"compound": "C[C@@H]1OC(=O)[C@H]2C[C@H]3CCCC[C@@H]3[C@@H](/C=C/[C@H]3CCC[C@H](C)N3C)[C@@H]12", "note": "[Himbacine]", "values": [{"measurement": "prevention of FDM and retinal damage", "setting": "FDM [2]", "value": "certain effect in preventing FDM without retinal damage"}]}, {"compound": "COc1ccccc1CNCCCCCCNCCCCCCCCNCCCCCCNCc1ccccc1OC", "note": "[methoctramine]", "values": [{"measurement": "inhibition of the occurrence of FDM", "setting": "FDM [3]", "value": "ineffective"}]}]}
